The target in series [1] is T1, Xyl3A (Mycothermus thermophilus, UniProt A0A0C5AKM5).
T1 construct: mature Xyl3A, signal peptide (residues 1-19) removed; precursor 777 residues; pPIC9 alpha-factor fusion, secreted from Pichia pastoris GS115
T1 sequence (A0A0C5AKM5 20-777): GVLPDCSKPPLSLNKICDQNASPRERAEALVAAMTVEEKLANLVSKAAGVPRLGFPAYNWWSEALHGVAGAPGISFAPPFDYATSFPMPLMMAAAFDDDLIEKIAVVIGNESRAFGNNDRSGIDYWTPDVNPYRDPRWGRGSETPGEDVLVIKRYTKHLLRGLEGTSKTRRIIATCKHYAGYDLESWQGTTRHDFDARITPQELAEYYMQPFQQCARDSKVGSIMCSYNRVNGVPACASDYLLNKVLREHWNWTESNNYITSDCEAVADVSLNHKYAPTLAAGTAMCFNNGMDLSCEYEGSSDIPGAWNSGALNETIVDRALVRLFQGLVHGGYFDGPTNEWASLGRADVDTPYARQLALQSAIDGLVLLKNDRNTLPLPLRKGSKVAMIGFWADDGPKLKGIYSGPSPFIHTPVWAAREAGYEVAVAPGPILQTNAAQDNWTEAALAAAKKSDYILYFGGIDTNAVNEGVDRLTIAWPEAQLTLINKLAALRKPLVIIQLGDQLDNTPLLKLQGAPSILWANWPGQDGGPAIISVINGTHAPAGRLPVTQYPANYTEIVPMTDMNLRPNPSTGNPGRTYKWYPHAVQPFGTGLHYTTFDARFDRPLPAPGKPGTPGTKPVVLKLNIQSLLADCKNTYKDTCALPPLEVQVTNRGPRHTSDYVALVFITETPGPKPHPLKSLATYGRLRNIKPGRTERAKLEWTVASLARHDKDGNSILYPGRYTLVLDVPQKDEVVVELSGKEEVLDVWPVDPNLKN
As to the kind of experiment: pNPX hydrolysis at […] nm, Dixon plot. The class given is biochemical. The following applies: pNPX 0.75 and 1 mM, xylose 5-50 mM, pH 6.0, 60°C; competitive (general statement for β-xylosidases); Methods define Ki as xylose giving 50% inhibition.

Substrate in series [2]: O=[N+]([O-])c1ccc(O[C@@H]2OC[C@@H](O)[C@H](O)[C@H]2O)cc1
As to the kind of experiment: purified protein. The class given is biochemical, Mycothermus thermophilus. As to conditions: pNPX 1-10 mM, 100 mM Na2HPO4-citric acid, pH 6.0, 60°C, 5 min.

Molecule `OC1OC[C@@H](O)[C@H](O)[C@H]1O` (some centres unmarked) [xylose] returned a Ki in series [1] of 29 mM.

B1: Xyl3A (Mycothermus thermophilus) (protein)
chain: GVLPDCSKPPLSLNKICDQNASPRERAEALVAAMTVEEKLANLVSKAAGVPRLGFPAYNWWSEALHGVAGAPGISFAPPFDYATSFPMPLMMAAAFDDDLIEKIAVVIGNESRAFGNNDRSGIDYWTPDVNPYRDPRWGRGSETPGEDVLVIKRYTKHLLRGLEGTSKTRRIIATCKHYAGYDLESWQGTTRHDFDARITPQELAEYYMQPFQQCARDSKVGSIMCSYNRVNGVPACASDYLLNKVLREHWNWTESNNYITSDCEAVADVSLNHKYAPTLAAGTAMCFNNGMDLSCEYEGSSDIPGAWNSGALNETIVDRALVRLFQGLVHGGYFDGPTNEWASLGRADVDTPYARQLALQSAIDGLVLLKNDRNTLPLPLRKGSKVAMIGFWADDGPKLKGIYSGPSPFIHTPVWAAREAGYEVAVAPGPILQTNAAQDNWTEAALAAAKKSDYILYFGGIDTNAVNEGVDRLTIAWPEAQLTLINKLAALRKPLVIIQLGDQLDNTPLLKLQGAPSILWANWPGQDGGPAIISVINGTHAPAGRLPVTQYPANYTEIVPMTDMNLRPNPSTGNPGRTYKWYPHAVQPFGTGLHYTTFDARFDRPLPAPGKPGTPGTKPVVLKLNIQSLLADCKNTYKDTCALPPLEVQVTNRGPRHTSDYVALVFITETPGPKPHPLKSLATYGRLRNIKPGRTERAKLEWTVASLARHDKDGNSILYPGRYTLVLDVPQKDEVVVELSGKEEVLDVWPVDPNLKN
notes: mature Xyl3A, signal peptide (residues 1-19) removed; precursor 777 residues; pPIC9 alpha-factor fusion, secreted from Pichia pastoris GS115
Take B1: the Km in series [2] came out at 2510 µM.
